Patent US20030138500A1 (priority 2001, published 2003)

Assays:
Format in all cases: in vivo
[1] = tested on: green peach aphid, Myzus persicae (Sulzer); assay: Mortality of green peach aphids on infested radish plants after spray treatment; details: Example 4, Table 4, after 2 days, concentration in label
Experimental: Radish plants were placed in a colony for 4 days for infestation with green peach aphid, Myzus persicae (Sulzer). Treatments were then applied with a hand-held trigger sprayer to wetting on all leaf surfaces. After treatment, plants were randomized on a lab bench in a completely randomized block design. Treatments consisted of 8 replicates of 1 plant each. Mortality was assessed after 2 days by counting the live and dead aphids on all leaves.

[2] = tested on: twospotted spider mites, Tetranychus urticae Koch; assay: Mortality of adult twospotted spider mites on bush bean leaves after spray treatment; details: two days after treatment, concentration in label
Experimental: (§1) Adult twospotted spider mites, Tetranychus urticae Koch, were obtained from a colony and 25 mites per leaf were placed on bush bean plants (one leaf per replicate). Mites were allowed to settle overnight and then treatments were applied to wetting on top and bottom leaf surfaces using a hand-held trigger sprayer. After treatment, plants were randomized on a lab bench in a randomized block design. Treatments consisted of 9 replicates of 1 plant each. Mortality was assessed 2 days following treatment.
as §1, with “10” for “9”

[3] = tested on: Green peach aphids, Myzus persicae (Sulzer); assay: Mortality of green peach aphids sprayed on plate glass (60 seconds exposure); details: Example 12, Table 12; after 1 day; concentration in label
Experimental: Green peach aphids, Myzus persicae (Sulzer), were obtained from a colony and transferred to plate glass for treatment. Treatments were then applied with a hand-held trigger sprayer to wetting and aphids remained exposed to treatments for 60 seconds. After treatment, aphids were transferred to filter paper lined petri dishes and dishes were randomized on a lab bench in a completely randomized design. Treatments consisted of 10 replicates of 10 aphids each. Mortality was assessed after 1 day.

SMILES	Observed % Mortality [1]	Observed % Mortality ([2]; Example 2, Table 2, adult female mites on bush bean)	Observed % Mortality ([2]; Example 3, Table 3, mites on bush bean)	Observed % Mortality [3]	Observed % Mortality ([2]; Example 11, Table 11, adult female mites on bush bean)
S1SSSSSSS1 [Powdered Sulfur (0.2% ai sulfur), Sulfur]	1.3%	4.5%	2.6%		
CC1(C)C(C=C(Cl)Cl)C1C(=O)OCc1cccc(Oc2ccccc2)c1 (centres unmarked) [Permethrin]				84.0%	26.2%
